Consider 16 compounds from patent US20050137220A1 (Pharmacia Corporation, priority 2003, published 2005).

Where a name gives a salt, the structure may show the parent alone.

Sequence of MK-2 (P49137 whole entry, species assumed): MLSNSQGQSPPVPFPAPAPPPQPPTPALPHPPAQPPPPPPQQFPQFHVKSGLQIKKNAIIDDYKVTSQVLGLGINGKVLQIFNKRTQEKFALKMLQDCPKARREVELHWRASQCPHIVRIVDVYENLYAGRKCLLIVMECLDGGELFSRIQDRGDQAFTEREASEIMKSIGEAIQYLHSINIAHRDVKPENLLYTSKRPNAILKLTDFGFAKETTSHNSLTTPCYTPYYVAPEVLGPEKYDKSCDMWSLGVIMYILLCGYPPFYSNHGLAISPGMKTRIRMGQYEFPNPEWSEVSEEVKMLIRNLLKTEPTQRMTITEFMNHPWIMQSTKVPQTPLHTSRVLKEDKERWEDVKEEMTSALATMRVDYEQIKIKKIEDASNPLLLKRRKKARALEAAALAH

The experiment concerns the target MK-2 (Homo sapiens, UniProt P49137). The experiment in a line: Determination of MK-2 IC50 (phosphorylation of HSP-peptide, anion exchange resin capture assay). The note with it: additional values are replicate IC50 experiments; mixture of stereoisomers implied unless otherwise noted; read-out: MK-2 Avg. IC50. Format: biochemical.
`COc1ccc2[nH]c3c(c2c1)C(Cc1ccco1)CNC3C(=O)O` (stereo not drawn) [Example 222, 4-(2-furylmethyl)-6-methoxy-2,3,4,9-tetrahydro-1H-beta-carboline-1-carboxylic acid trifluoroacetate]: the IC50 (in general, the point on the concentration scale where inhibition reaches its midpoint) was > 200 µM. Consider `CCOC(=O)CCCOc1ccc2[nH]c3c(c2c1)CCNC3C(=O)O` (stereo not drawn) [Example 130, 6-(4-ethoxy-4-oxobutoxy)-2,3,4,9-tetrahydro-1H-beta-carboline-1-carboxylic acid hydrochloride], for which the IC50 stood at 100 µM. As for `COc1ccc2[nH]c3c(c2c1)CCNC3C(=O)NCC(=O)O` (stereo not drawn) [Example 229, N-[(6-methoxy-2,3,4,9-tetrahydro-1H-beta-carbolin-1-yl)carbonyl]glycine hydrochloride hydrate], the IC50 is > 200 µM. As for `O=C(O)C1NCCc2c1[nH]c1ccc(OCc3ccccc3Cl)cc21` (stereo not drawn) [Example 196, 6-[(2-chlorobenzyl)oxy]-2,3,4,9-tetrahydro-1H-beta-carboline-1-carboxylic acid hydrochloride], the IC50 was > 200 µM. As for `O=C(O)C1NCCc2c1[nH]c1ccc(OCCCc3ccccc3)cc21` (stereo not drawn) [Example 139, 6-(3-phenylpropoxy)-2,3,49-tetrahydro-1H-beta-carboline-1-carboxylic acid], the IC50 was 117 µM. For `COc1ccc2[nH]c3c(c2c1)C(c1ccccc1)CNC3C(=O)O` (stereo not drawn) [Example 233, 6-methoxy-4-phenyl-2,3,4,9-tetrahydro-1H-beta-carboline-1-carboxylic acid], the IC50 was > 200 µM. As to `COc1ccc2[nH]c3c(c2c1)CCN(C(=O)OCc1ccccc1)C3C(=O)NCC(=O)OCc1ccccc1` (stereo not drawn) [Example 218, 2-[(benzyloxy)carbonyl]-6-methoxy-N-[2-(benzyloxy)-2-oxo]ethyl-2,3,4,9-tetrahydro-1H-beta-carboline-1-carboxamide], the IC50 was > 200 µM.

On to `COc1ccc2[nH]c3c(c2c1)CC(CC#N)NC3=O` (stereo not drawn) [Example 116, (6-methoxy-1-oxo-2,3,4,9-tetrahydro-1H-beta-carbolin-3-yl)acetontrile], for which the IC50 is 68.7 µM. For `COc1ccc2[nH]c3c(c2c1)CCN1CC(C)NC(=O)C31` (stereo not shown) [Example 206, 9-methoxy-3-methyl-3,4,6,7,12,12b-hexahydropyrazino[1′, 2′:1 , 2]pyrido[3,4-b]indol-1(2H)-one], the IC50 was > 200 µM. As to `COC(=O)CC1NCCc2c1[nH]c1ccc(OC)cc21` (stereo not drawn) [Example 167, methyl(6-methoxy-2,3,4,9-tetrahydro-1H-beta-carbolin-1-yl)acetate], the IC50 was > 200 µM. To `COC(=O)C1c2[nH]c3ccc(O)cc3c2CCN1C` (stereo not drawn) [Example 174, methyl 6-hydroxy-2-methyl-2,3,4,9-tetrahydro-1H-beta-carboline-1-carboxylate] belongs > 200 µM. As for `COC(=O)C1c2[nH]c3ccc(OC)cc3c2CCN1C(C)C` (stereo not drawn) [Example 199, methyl 2-isopropyl-6-methoxy-2,3,4,9-tetrahydro-1H-beta-carboline-1-carboxylate], the figure is > 200 µM; as for `CCOC(=O)c1ccc2c3c([nH]c2c1)CCNC3=O` [Example 110, ethyl 1-oxo-2,3,4,5-tetrahydro-1H-pyrido[4,3-b]indole-7-carboxylate], 50.1 µM; as for `COc1ccc2[nH]c3c(c2c1)CCN(C(C)C)C3C(=O)O` (stereo not drawn) [Example 157, sodium 2-isopropyl-6-methoxy-2,3,4,9-tetrahydro-1H-beta-carboline-1-carboxylate], 170 µM.

Regarding `COC(=O)C1(Cc2ccc(Cl)cc2)c2[nH]c3ccc(O)cc3c2CCN1C` (stereo not drawn) [Example 173, methyl 1-[4-chlorobenzyl)-6-hydroxy-2-methyl-2,3,4,9-tetrahydro-1H-beta-carboline-1-carboxylate], the IC50 is > 200 µM. In the case of `COc1ccc2[nH]c3c(c2c1)CCNC3CO` (stereo not drawn) [Example 221, (6-methoxy-2,3,4,9-tetrahydro-1H-beta-carbolin-1-yl)methanol], the IC50 was > 200 µM.
